Data: patent US12049450B2, “Pyridyloxy-carboxylate derivative and preparation method therefor, herbicidal composition, and use” (Qingdao Kingagroot Chemical Compound Co., Ltd., priority 2018, dated 2024)

How the values were obtained:
Experiment in all cases: Post-emergence test experiment (greenhouse pot, spray at 2-3 leaf stage)
Assay type in all cases: in vivo
Conditions in all cases: 1000 g/ha; post-emergence spray at 2-3 leaf stage; assessed after 3 weeks; fresh weight inhibition rate
Abutilon theophrasti = tested on: Abutilon theophrasti
Excerpt: (§1) The activity level standard of harmful plants destruction (i. e. growth inhibition rate) is as follows: • Level 5: the growth inhibition rate is greater than 85%; • Level 4: the growth inhibition rate is equal to or greater than 60% and less than 85%; • Level 3: the growth inhibition rate is equal to or greater than 40% and less than 60%; • Level 2: the growth inhibition rate is equal to or greater than 20% and less than 40%; • Level 1: the growth inhibition rate is equal to or greater than 5% and less than 20%; • Level 0: the growth inhibition rate is less than 5%;
(§2) The above described growth inhibition rate is fresh weight inhibition rate.
(§3) Post-emergence test experiment: Monocotyledonous and dicotyledonous weed seeds and main crop seeds (i. e. wheat, corn, rice, soybean, cotton, oilseed, millet and sorghum.) were put into a plastic pot loaded with soil. Then covered with 0.5-2 cm soil, the seeds were allowed to grow in good greenhouse environment. The test plants were treated at 2-3 leaf stage 2 weeks after sowing. The test compounds of the invention were dissolved with acetone respectively, then added with tween-80, and using 1.5 liters per hectare of an emulsible concentrate of methyl oleate as a synergist, and diluted by certain amount of water to certain concentration. The solution was sprayed to the plants with a sprayer. Then the plants were cultured for 3 weeks in the greenhouse, and the experiment result of weed controlling effect after 3 weeks was listed in tables 3-4.

Galium spurium = tested on: Galium spurium
Excerpt: as §1, §2, §3

Monochoria vaginalis = tested on: Monochoria vaginalis
Excerpt: as §1, §2, §3

Row | SMILES | Activity level (growth inhibition rate) Abutilon theophrasti (Abutilon theophrasti) | Activity level (growth inhibition rate) Galium spurium (Galium spurium) | Activity level (growth inhibition rate) Monochoria Vaginalis (Monochoria vaginalis)
1 | CCC(Oc1nc(F)c(Cl)c(N)c1Cl)C(=O)OCc1ccccc1 (stereo not drawn) [Compound 25] | 5 (Level 5: the growth inhibition rate is greater than 85%) | 5 (Level 5: the growth inhibition rate is greater than 85%) | 5 (Level 5: the growth inhibition rate is greater than 85%)
2 | CCCC(Oc1nc(F)c(Cl)c(N)c1Cl)C(=O)SCc1ccccc1 (stereo not drawn) [Compound 26] | 5 (Level 5: the growth inhibition rate is greater than 85%) | 5 (Level 5: the growth inhibition rate is greater than 85%) | 5 (Level 5: the growth inhibition rate is greater than 85%)
3 | Nc1c(Cl)c(F)nc(OC(C(=O)OCc2ccccc2)C2CC2)c1Cl (stereo not drawn) [Compound 28] | 5 (Level 5: the growth inhibition rate is greater than 85%) | 5 (Level 5: the growth inhibition rate is greater than 85%) | 5 (Level 5: the growth inhibition rate is greater than 85%)
4 | COCC(Oc1nc(F)c(Cl)c(N)c1Cl)C(=O)OCc1ccccc1 (stereo not drawn) [Compound 29] | 5 (Level 5: the growth inhibition rate is greater than 85%) | 5 (Level 5: the growth inhibition rate is greater than 85%) | 5 (Level 5: the growth inhibition rate is greater than 85%)
5 | COCCC(Oc1nc(F)c(Cl)c(N)c1Cl)C(=O)SCc1ccccc1 (stereo not drawn) [Compound 30] | 5 (Level 5: the growth inhibition rate is greater than 85%) | 5 (Level 5: the growth inhibition rate is greater than 85%) | 5 (Level 5: the growth inhibition rate is greater than 85%)
6 | COC(C)C(Oc1nc(F)c(Cl)c(N)c1Cl)C(=O)OCc1ccccc1 (stereo not drawn) [Compound 31] | 5 (Level 5: the growth inhibition rate is greater than 85%) | 5 (Level 5: the growth inhibition rate is greater than 85%) | 5 (Level 5: the growth inhibition rate is greater than 85%)
7 | C=CC(Oc1nc(F)c(Cl)c(N)c1Cl)C(=O)OCc1ccccc1 (stereo not drawn) [Compound 32] | 5 (Level 5: the growth inhibition rate is greater than 85%) | 5 (Level 5: the growth inhibition rate is greater than 85%) | 5 (Level 5: the growth inhibition rate is greater than 85%)
8 | C#CC(Oc1nc(F)c(Cl)c(N)c1Cl)C(=O)SCc1ccccc1 (stereo not drawn) [Compound 33] | 5 (Level 5: the growth inhibition rate is greater than 85%) | 5 (Level 5: the growth inhibition rate is greater than 85%) | 5 (Level 5: the growth inhibition rate is greater than 85%)
9 | Nc1c(Cl)c(F)nc(OC(F)C(=O)OCc2ccccc2)c1Cl (stereo not drawn) [Compound 34] | 5 (Level 5: the growth inhibition rate is greater than 85%) | 5 (Level 5: the growth inhibition rate is greater than 85%) | 5 (Level 5: the growth inhibition rate is greater than 85%)
10 | Nc1c(Cl)c(F)nc(OC(Cl)C(=O)OCc2ccccc2)c1Cl (stereo not drawn) [Compound 35] | 5 (Level 5: the growth inhibition rate is greater than 85%) | 5 (Level 5: the growth inhibition rate is greater than 85%) | 5 (Level 5: the growth inhibition rate is greater than 85%)
11 | Nc1c(Cl)c(F)nc(OC(Br)C(=O)SCc2ccccc2)c1Cl (stereo not drawn) [Compound 36] | 5 (Level 5: the growth inhibition rate is greater than 85%) | 5 (Level 5: the growth inhibition rate is greater than 85%) | 5 (Level 5: the growth inhibition rate is greater than 85%)
12 | Nc1c(Cl)c(F)nc(OC(CCl)C(=O)OCc2ccccc2)c1Cl (stereo not drawn) [Compound 37] | 5 (Level 5: the growth inhibition rate is greater than 85%) | 5 (Level 5: the growth inhibition rate is greater than 85%) | 5 (Level 5: the growth inhibition rate is greater than 85%)
13 | Nc1c(Cl)c(F)nc(OC(CF)C(=O)SCc2ccccc2)c1Cl (stereo not drawn) [Compound 38] | 5 (Level 5: the growth inhibition rate is greater than 85%) | 5 (Level 5: the growth inhibition rate is greater than 85%) | 5 (Level 5: the growth inhibition rate is greater than 85%)
14 | Nc1c(Cl)c(F)nc(OC(C(=O)OCc2ccccc2)C(F)F)c1Cl (stereo not drawn) [Compound 39] | 5 (Level 5: the growth inhibition rate is greater than 85%) | 5 (Level 5: the growth inhibition rate is greater than 85%) | 5 (Level 5: the growth inhibition rate is greater than 85%)
15 | Nc1c(Cl)c(F)nc(OC(CCCl)C(=O)OCc2ccccc2)c1Cl (stereo not drawn) [Compound 40] | 5 (Level 5: the growth inhibition rate is greater than 85%) | 5 (Level 5: the growth inhibition rate is greater than 85%) | 5 (Level 5: the growth inhibition rate is greater than 85%)
16 | Nc1c(Cl)c(F)nc(OC(CC(F)(F)F)C(=O)SCc2ccccc2)c1Cl (stereo not drawn) [Compound 42] | 5 (Level 5: the growth inhibition rate is greater than 85%) | 5 (Level 5: the growth inhibition rate is greater than 85%) | 5 (Level 5: the growth inhibition rate is greater than 85%)
17 | Nc1c(Cl)c(F)nc(OC(N)C(=O)OCc2ccccc2)c1Cl (stereo not drawn) [Compound 45] | 5 (Level 5: the growth inhibition rate is greater than 85%) | 5 (Level 5: the growth inhibition rate is greater than 85%) | 5 (Level 5: the growth inhibition rate is greater than 85%)
18 | CSC(Oc1nc(F)c(Cl)c(N)c1Cl)C(=O)OCc1ccccc1 (stereo not drawn) [Compound 47] | 5 (Level 5: the growth inhibition rate is greater than 85%) | 5 (Level 5: the growth inhibition rate is greater than 85%) | 5 (Level 5: the growth inhibition rate is greater than 85%)
19 | Nc1c(Cl)c(F)nc(OC(CO)C(=O)OCc2ccccc2)c1Cl (stereo not drawn) [Compound 48] | 5 (Level 5: the growth inhibition rate is greater than 85%) | 5 (Level 5: the growth inhibition rate is greater than 85%) | 5 (Level 5: the growth inhibition rate is greater than 85%)
20 | Nc1c(Cl)c(F)nc(OC(C(=O)OCc2ccccc2)[N+](=O)[O-])c1Cl (stereo not drawn) [Compound 49] | 5 (Level 5: the growth inhibition rate is greater than 85%) | 5 (Level 5: the growth inhibition rate is greater than 85%) | 5 (Level 5: the growth inhibition rate is greater than 85%)
21 | Nc1c(Cl)c(F)nc(OC(C=O)C(=O)OCc2ccccc2)c1Cl (stereo not drawn) [Compound 51] | 5 (Level 5: the growth inhibition rate is greater than 85%) | 5 (Level 5: the growth inhibition rate is greater than 85%) | 5 (Level 5: the growth inhibition rate is greater than 85%)
22 | COC(=O)C(Oc1nc(F)c(Cl)c(N)c1Cl)C(=O)OCc1ccccc1 (stereo not drawn) [Compound 52] | 5 (Level 5: the growth inhibition rate is greater than 85%) | 5 (Level 5: the growth inhibition rate is greater than 85%) | 5 (Level 5: the growth inhibition rate is greater than 85%)
23 | Nc1c(Cl)c(F)nc(OC(C(=O)SCc2ccccc2)c2ccoc2)c1Cl (stereo not drawn) [Compound 55] | 5 (Level 5: the growth inhibition rate is greater than 85%) | 5 (Level 5: the growth inhibition rate is greater than 85%) | 5 (Level 5: the growth inhibition rate is greater than 85%)
24 | Nc1c(Cl)c(F)nc(OC(C(=O)OCc2ccccc2)c2cscn2)c1Cl (stereo not drawn) [Compound 56] | 5 (Level 5: the growth inhibition rate is greater than 85%) | 5 (Level 5: the growth inhibition rate is greater than 85%) | 5 (Level 5: the growth inhibition rate is greater than 85%)
